Laboratory results taken from the supplement of paper PMC9938120.

What was measured:
Assay in all cases: drug sensitivity score (DSS3, normalised partial AUC of % inhibition dose-response) (DSS (score)); higher = more sensitive (stronger inhibition of viability); extreme values may be limits of the assay
FMOC02_1 = patient-derived low-grade serous ovarian cancer cells; conditions: 72 h; library: FO5A; assay format: 2D, 384-well, CellTiter-Glo
Summary of the method: (§1)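 Early-passage (under 10) patient-derived ovarian cancer cells were dispensed onto 384-well flat clear-bottom plates pre-plated with compounds at five concentrations spanning a 10,000-fold range, then incubated 72 h at 37 °C, 5% CO2. Viability was read with CellTiter-Glo, and the data were processed in Breeze. The drug sensitivity score is a partial area under the percent-inhibition dose-response curve divided by the log of the upper asymptote, with higher values meaning greater sensitivity.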

FMOC24 = patient-derived high-grade serous ovarian cancer cells; conditions: 72 h; library: FO5A; assay format: 2D, 384-well, CellTiter-Glo
Summary of the method: as §1

FMOC28 = patient-derived low-grade serous ovarian cancer cells; conditions: 72 h; library: FO5A; assay format: 2D, 384-well, CellTiter-Glo
Summary of the method: as §1

FMOC27 = patient-derived low-grade serous ovarian cancer cells; conditions: 72 h; library: FO5A; assay format: 2D, 384-well, CellTiter-Glo
Summary of the method: as §1

FMOC14 = patient-derived high-grade serous ovarian cancer cells; conditions: 72 h; library: FO5A; assay format: 2D, 384-well, CellTiter-Glo
Summary of the method: as §1

FMOC04 = patient-derived high-grade serous ovarian cancer cells; conditions: 72 h; library: FO5A; assay format: 2D, 384-well, CellTiter-Glo
Summary of the method: as §1

FMOC22 = patient-derived mucinous ovarian cancer cells; conditions: 72 h; library: FO5A; assay format: 2D, 384-well, CellTiter-Glo
Summary of the method: as §1

FMOC02_3 = patient-derived low-grade serous ovarian cancer cells; conditions: 72 h; library: FO5A; assay format: 2D, 384-well, CellTiter-Glo
Summary of the method: as §1

FMOC02_2 = patient-derived low-grade serous ovarian cancer cells; conditions: 72 h; library: FO5A; assay format: 2D, 384-well, CellTiter-Glo
Summary of the method: as §1

FMOC25_1 = patient-derived low-grade serous ovarian cancer cells; conditions: 72 h; library: FO4B; assay format: 2D, 384-well, CellTiter-Glo
Summary of the method: as §1

FMOC25_2 = patient-derived low-grade serous ovarian cancer cells; conditions: 72 h; library: FO5A; assay format: 2D, 384-well, CellTiter-Glo
Summary of the method: as §1

FMOC11 = patient-derived high-grade serous ovarian cancer cells; conditions: 72 h; library: FO5A; assay format: 2D, 384-well, CellTiter-Glo
Summary of the method: as §1

FMOC06 = patient-derived mucinous ovarian cancer cells; conditions: 72 h; library: FO5A; assay format: 2D, 384-well, CellTiter-Glo
Summary of the method: as §1

FMOC17 = patient-derived low-grade serous ovarian cancer cells; conditions: 72 h; library: FO5A; assay format: 2D, 384-well, CellTiter-Glo
Summary of the method: as §1

FMOC09 = patient-derived high-grade serous ovarian cancer cells; conditions: 72 h; library: FO5A; assay format: 2D, 384-well, CellTiter-Glo
Summary of the method: as §1

FMOC03 = patient-derived mucinous ovarian cancer cells; conditions: 72 h; library: FO5A; assay format: 2D, 384-well, CellTiter-Glo
Summary of the method: as §1

| SMILES | drug sensitivity score (FMOC02_1) | drug sensitivity score (FMOC24) | drug sensitivity score (FMOC28) | drug sensitivity score (FMOC27) | drug sensitivity score (FMOC14) | drug sensitivity score (FMOC04) | drug sensitivity score (FMOC22) | drug sensitivity score (FMOC02_3) | drug sensitivity score (FMOC02_2) | drug sensitivity score (FMOC25_1) | drug sensitivity score (FMOC25_2) | drug sensitivity score (FMOC11) | drug sensitivity score (FMOC06) | drug sensitivity score (FMOC17) | drug sensitivity score (FMOC09) | drug sensitivity score (FMOC03) |
| --- | --- | --- | --- | --- | --- | --- | --- | --- | --- | --- | --- | --- | --- | --- | --- | --- |
| CCCc1cc(C)[nH]c(=O)c1CNC(=O)c1cc(-c2ccnc(N3CCN(C)CC3)c2)cc2c1cnn2C(C)C [GSK343] | 0 | 0.55 | 2 | 0 | 0 | 0 | 0 | 0 | 0 | 1.6 | 0.1 | 0 | 0 | 0.3 | 0.1 | 0 |
| C[C@H](Nc1ncnc2nc[nH]c12)c1cc2cccc(Cl)c2c(=O)n1-c1ccccc1 [Duvelisib] | 0 | 0.65 | 0 | 0.1 | 0 | 0 | 0 | 0 | 0.1 | 0 | 0 | 0.7 | 1 | 0.5 | 0 | 0 |
| C[C@@H](Oc1ccc2[nH]nc(/C=C/c3cnn(CCO)c3)c2c1)c1c(Cl)cncc1Cl | 6.3 | 1.7 | 0.6 | 2.4 | 0 | 1.8 | 3.5 | 3.9 | 4.2 | 1 | 6.8 | 2.4 | 6 | 4.1 | 3.3 | 3.1 |
| O=C(O)CC[C@H]1CC[C@@](c2cc(F)ccc2F)(S(=O)(=O)c2ccc(Cl)cc2)CC1 [MK-0752] | 0 | 0 | 0.2 | 0 | 0 | 0 | 0 | 0.7 | 0 | 0 | 0 | 0 | 0.3 | 0 | 0 | 0 |
| CCCCCOC(=O)Nc1nc(=O)n([C@@H]2O[C@H](C)[C@@H](O)[C@H]2O)cc1F [Capecitabine] | 0 | 0.6 | 0 | 0 | 0.7 | 1.95 | 2.5 | 0 | 0 | 0 | 0.7 | 0.1 | 0 | 0.5 | 0 | 0.4 |
| CCCS(=O)(=O)Nc1ccc(F)c(C(=O)c2c[nH]c3ncc(-c4ccc(Cl)cc4)cc23)c1F [Vemurafenib] | 3.3 | 1.65 | 2.6 | 0 | 1.3 | 0 | 2.5 | 1.8 | 1.6 | 1.7 | 1.6 | 1.6 | 0.3 | 1 | 0 | 3 |
| NC[C@@](O)(c1ccc(Cl)cc1)c1ccc(-c2cn[nH]c2)cc1 | 4.1 | 4.55 | 2.8 | 0 | 0 | 0 | 1.1 | 0 | 0.4 | 2.8 | 0.4 | 2.8 | 1.5 | 0 | 2.6 | 0.3 |
| Nc1nc(N)c2nc(-c3cccc(O)c3)c(-c3cccc(O)c3)nc2n1 [TG100-115] | 0 | 0.1 | 0 | 0 | 0.7 | 0 | 0 | 1.4 | 0 | 0 | 0.7 | 0.4 | 0.4 | 1.1 | 0.3 | 0.1 |
| C[C@]12C=CC(=O)C=C1CC[C@@H]1[C@@H]2[C@@H](O)C[C@@]2(C)[C@H]1CC[C@]2(O)C(=O)CO [Prednisolone] | 0.1 | 0.65 | 0 | 0 | 0 | 0 | 0 | 0 | 0 | 0 | 0 | 0 | 0.7 | 0 | 0 | 0 |
| NC(=O)c1cccc(-c2cccc(OC(=O)NC3CCCCC3)c2)c1 [URB597] | 0 | 0 | 0 | 0 | 0 | 0 | 0 | 0.2 | 0 | 0 | 0 | 0 | 0 | 0 | 0 | 0 |
| Nc1nc(Cl)nc2c1ncn2[C@H]1C[C@H](O)[C@@H](CO)O1 [Cladribine] | 7 | 0 | 0.3 | 2.3 | 0 | 0.2 | 3.9 | 4 | 3.3 | 2.4 | 7.2 | 0.8 | 0.2 | 0.4 | 1.8 | 0.5 |
| CC1=C(/C=C/C(C)=C/C=C/C(C)=C/C(=O)O)C(C)(C)CCC1 [Tretinoin] | 0 | 0 | 0 | 0 | 0 | 0 | 0 | 5.2 | 0 | 0 | 0.2 | 2 | 0.1 | 0 | 0 | 0 |
| COc1cc2ncnc(Oc3cccc(NC(=O)Nc4cc(C(C)(C)C(F)(F)F)on4)c3)c2cc1OC | 4 | 0 | 0 | 0 | 0.3 | 0 | 0 | 4.4 | 6.6 | 0 | 1.1 | 3.3 | 0.3 | 0 | 1.3 | 0 |
| Cc1ccc(F)c(NC(=O)Nc2ccc(-c3cccc4[nH]nc(N)c34)cc2)c1 [Linifanib] | 0 | 0 | 0 | 0 | 0 | 0 | 0 | 0 | 0 | 0 | 0 | 0 | 0 | 0 | 0 | 0 |
| Oc1ncnc2[nH]ncc12 [Allopurinol] | 0 | 0 | 0 | 0 | 0 | 0 | 0 | 0 | 0 | 1.3 | 0 | 0 | 0 | 0 | 0 | 0 |
| Cc1ccc(NC(=O)c2ccc(CN3CCN(C)CC3)cc2)cc1Nc1nccc(-c2cccnc2)n1 [Imatinib] | 0.3 | 2.75 | 0 | 0 | 2 | 0 | 0 | 1.6 | 1.2 | 0.3 | 0.1 | 0 | 0 | 0 | 0 | 0.4 |
| O=C(O)c1ccc(CN2CCC(CN[C@@H]3C[C@H]3c3ccccc3)CC2)cc1 | 0.4 | 0.9 | 0 | 0 | 0 | 0.4 | 0 | 1.6 | 0 | 0 | 0 | 0 | 0 | 0 | 0 | 0 |
| N#Cc1ccc(COC[C@H]2O[C@@H](n3c(NCc4ccc(Cl)c(Cl)c4)nc4c(N)ncnc43)[C@H](O)[C@@H]2O)cc1 | 7.6 | 2.1 | 0 | 1.6 | 2.5 | 0.95 | 4.2 | 6.6 | 2.6 | 6.6 | 0 | 3.2 | 5.5 | 5.6 | 2 | 6 |
| Nc1ncnc2c1c(COc1cccc(Cl)c1)nn2C1CCOCC1 | 0.5 | 0 | 0 | 0.8 | 0.3 | 0 | 0 | 0.4 | 1 | 0.6 | 1.9 | 0 | 0 | 0 | 0 | 0 |
| O=C(c1ccc(OCCN2CCCCC2)cc1)c1c(-c2ccc(O)cc2)sc2cc(O)ccc12 [Raloxifene] | 5.5 | 8.45 | 0 | 0.2 | 2.6 | 1.95 | 1.2 | 4.5 | 5.8 | 1.7 | 3.7 | 2.9 | 4.5 | 1.8 | 0.7 | 0.7 |
| O=c1sn(-c2cccc3ccccc23)c(=O)n1Cc1ccccc1 [Tideglusib] | 0 | 0 | 0 | 0 | 0 | 0 | 0 | 0 | 1 | 0.3 | 0 | 0 | 0 | 0 | 0 | 0 |
| CNC(=O)c1cc(Oc2ccc(NC(=O)Nc3ccc(Cl)c(C(F)(F)F)c3)c(F)c2)ccn1 [Regorafenib] | 5.2 | 1.9 | 2.9 | 0.8 | 2.6 | 0 | 4 | 2.6 | 2 | 0.3 | 0.3 | 2.6 | 2.3 | 1.9 | 1.3 | 3.7 |
